In patent publication US20230135761A1, “TRANSGENIC PLANTS HAVING PROLONGED RIPENING AND REDUCED SUSCEPTIBILITY TO PATHOGENS” (MIGAL GALILEE RESEARCH INSTITUTE LTD, priority 2020, published 2023):

System: ICDH1 mRNA
Test: ICDH1 mRNA levels by real time PCR in 1-MCP-treated tomato fruits
Assay type: in vivo, Solanum lycopersicum; cv. Micro Tom
Settings: 1-MCP-treated vs untreated Micro-Tom tomatoes; 24 hr at 20° C.; stages MG, BRK, EO; FIG. 2
Method: Tomato (Solanum lycopersicum; cv. Micro Tom) plants were grown under natural light in a climate-controlled greenhouse, at 24° C. during the day and 18° C. during the night. 1-MCP was applied using SmartFresh powder (Rohm and Haas, Philadelphia, Pa., USA) containing 0.14% 1-MCP as active ingredient, dissolved in warm water at a concentration of 2,000 nL·mL^−1 1-MCP (stock solution). Fruits were enclosed in a 30 L airtight barrel and the stock solution was injected to a final concentration of […]. Treatment duration was 24 hr at 20° C. For the control, fruits were treated identically excluding 1-MCP application (Gamrasni et al., 2017).
RNA was extracted using NucleoSpin® RNA Plant kit (Macherey-Nagel) according to the manufacturer's protocol. cDNA was prepared from 1 μg total RNA with Verso cDNA Synthesis Kit (ThermoFisher Scientific). The reaction was performed at 42° C. for 30 min. followed by inactivation at 95° C. for 2 min. […] Relative expression ratio was normalized to the S1ASR gene (Solyc04g071610) used as an internal control (Relative RNA levels were determined by the delta-delta Ct method). The significance of results (n=3) was evaluated by independent t-test at *P<0.05 using the SPSS Statistics 20 software (IBM, USA).

Compound: CC1=CC1 [1-MCP, 1-methylcyclopropene]
- ICDH1 mRNA production / levels: reduced significantly
